Experimental data reported in patent US5409935A, “Xanthine derivatives for the treatment of secondary nerve cell damage and functional disorders after cranio-cerebral traumas” (Hoechst Aktiengesellschaft, priority 1991, dated 1995).

Legend:
peritoneal macrophages = assay: Flow-cytometric free radical formation (oxidation of Dihydrorhodamine 123 to Rhodamine 123) in peritoneal macrophages, conA-stimulated; type: cell-based, white male Wistar rats; details: for fluorescence, conA ± Comp. 1: 50 μM compound 1, conA-stimulated; for inhibition at 50 µM: conA-stimulated, * p < 0.05
Method: Peritoneal macrophages were obtained by peritoneal washing of white male Wistar rats aged 12 weeks with 10 ml of HBS-Hanks (Serva Feinbiochemica, Heidelberg). […] All cells were stored for a period of at most 2 hours after preparation until flow-cytrometric analysis at 4° C.
The cell volume and two fluorescences were simultaneously measured in about 10,000 cells per sample using a FACScan flow cytometer (Becton Dickinson, San Jose, Calif., USA). […] The flow cytometer was calibrated with standardized yellow-green-fluorescing microspheres of 4.3 μm diameter (Polysciences, St. Goar, F.R.G.).
(§1) Each measurement is based on the individual measurements of the cells contained in a sample (about 10,000). In order to keep the experimental boundary conditions as constant as possible, several experiments were carried out successively on the same day. In such a test series, in each case four different samples of an experimental group and their control were measured by flow cytometry at variously defined points of time. As a rule, 3-4 test series were carried out per experimental group.

microglia cells = assay: Flow-cytometric free radical formation (Rhodamine 123 fluorescence) in cultured microglia cells; type: cell-based, newborn rats; details: for inhibition at 50 µM: Rattus norvegicus, Microglia, * p < 0.05
Method: In order to measure the intracellular generation of oxygen free radicals in peritoneal macrophages and in cultures of activated microglia, a flow-cytometric method was used (Rothe, Oser, Valet, Naturwissenschaften, 75, 354, 1988). Specifically, the free radical formation in individual viable cells was determined by measuring the intracellular oxidation of the membrane-permeable and non-fluorescent Dihydrorhodamine 123 (DHR; Eugene, Ore., USA) to the membrane-impermeable and intracellularly "trapped", green fluorescent Rhodamine 123.
DHR was dissolved in a 43.3 mM stock solution in N,N-dimethylformamide (DMF; Merck, Darmstadt, F.R.G.). The method is also suitable for the individual and simultaneous measurement of various subpopulations within a heterogeneous cell population; it therefore allows the exclusion of contaminating populations. Moreover, in another series of tests the identification of the cell type to be measured in each case was simultaneously confirmed during the flow-cytometric measurement by specific immunocytochemical antibody staining. Peritoneal macrophages were obtained by peritoneal washing of white male Wistar rats aged 12 weeks with 10 ml of HBS-Hanks (Serva Feinbiochemica, Heidelberg). The cells were sedimented at 200 g and 20° C. for 5 min and resuspended in HBS-Hanks (4×10^6 cells/ml). All cells were stored for a period of at most 2 hours after preparation until flow-cytrometric analysis at 4° C.
Microglia cultures from the brain of newborn rats were prepared (Giulian & Baker, J. Neuroscience, 1986, 6:2163-2178). After mechanical dissociation of the tissue in Dulbecco's modified Eagle's medium (Sigma Chemie, DMEM), supplemented with 2 g/l of NaHCO3 and 20% heat-inactivated fetal calf serum, the primary cultures were kept in […] culture flasks at 3% pCO2 and 37° C. for 2 to 4 weeks. Cells which grew on the surface of a continuous cell layer were removed by shaking, pelleted and resuspended (3×10^6 cells/ml) in Hepes Hanks buffered salt solution (5 mM Hepes, 0.15M NaCl, pH 7.35; Serva Feinbiochemica, Heidelberg, F.R.G.). In order to test the effect of the compound 1, in the experimental groups the DHR-loaded cells were incubated with 50 μM of the compound according to the invention for 15, 25, 35, 45 and 60 min, to be precise with or without parallel stimulation of free radical formation by concanavalin A (conA, 100 μM/ml). No active substance was added to the respective control groups.
The cell volume and two fluorescences were simultaneously measured in about 10,000 cells per sample using a FACScan flow cytometer (Becton Dickinson, San Jose, Calif., USA). Rhodamine 123 green fluorescence (500-530 nm) and propidium iodide red fluorescence (590-700 nm) were measured with excitation by an argon laser with a wavelength of 488 nm. The flow cytometer was calibrated with standardized yellow-green-fluorescing microspheres of 4.3 μm diameter (Polysciences, St. Goar, F.R.G.).
as §1

[1] = arterial circulatory disorders, known; cited from earlier work
[2] = known; cited from earlier work

CCCn1cnc2c1c(=O)n(CCCCC(C)=O)c(=O)n2C [compound 1, 1-(5-oxohexyl)-3-methyl-7-n-propylxanthine]
suppressive effect on free radical formation, dose dependence (peritoneal macrophages; 10 μM and 50 μM): dose-dependent | stimulatory effect of conA in the presence of compound 1 (peritoneal macrophages; 50 μM compound 1): blocked | fluorescence, conA ± Comp. 1 (peritoneal macrophages; 15 min): 9.0875 apparatusspecific units | fluorescence, conA ± Comp. 1 (peritoneal macrophages; 25 min): 8.0867 apparatusspecific units | fluorescence, conA ± Comp. 1 (peritoneal macrophages; 35 min): 25.5 apparatusspecific units | fluorescence, conA ± Comp. 1 (peritoneal macrophages; 45 min): 31.755 apparatusspecific units | significance of effect of compound 1 (peritoneal macrophages; 50 μM, all measurements with incubation times over 15 min): significant (p<0.05 in the t-test) | inhibition at 50 µM (peritoneal macrophages; Rattus norvegicus, Peritoneal macrophage, 25 min, 50 μM): 60% | inhibition at 10 µM (peritoneal macrophages; Rattus norvegicus, Peritoneal macrophage, 35 min, 10 μM, maximum conA activation, p<0.05 in the t-test): 21% | inhibition at 50 µM (peritoneal macrophages; Rattus norvegicus, Peritoneal macrophage, 35 min, 50 μM): 37% | inhibition at 50 µM (peritoneal macrophages; Rattus norvegicus, Peritoneal macrophage, 0.75 h, 50 μM, 45 min): 32% | inhibition of free radical formation (microglia cells; 50 μM): clear inhibition | fluorescence, Compound 1 (microglia cells; 50 μM, 15 min): 2060.6 apparatusspecific units | fluorescence, Compound 1 (microglia cells; 50 μM, 25 min): 2121.3 apparatusspecific units | fluorescence, Compound 1 (microglia cells; 50 μM, 35 min): 1170.4 apparatusspecific units | maximum depression of cellular Rhodamine 123 fluorescence (microglia cells; 50 μM, 35 min): about one-third | fluorescence, Compound 1 (microglia cells; 50 μM, 45 min): 1556.9 apparatusspecific units | fluorescence, Compound 1 (microglia cells; 50 μM, 60 min): 910.4 apparatusspecific units | significance of effect of compound 1 (microglia cells; 50 μM, incubation times of over 15 min): significant (p<0.05 in the t-test) | inhibition at 50 µM (microglia cells; 25 min): 19% | inhibition at 50 µM (microglia cells; 35 min): 27% | inhibition at 50 µM (microglia cells; 0.75 h, 45 min): 23% | inhibition at 50 µM (microglia cells; 1 h, 60 min): 27% | vasodilating action [1]: vasodilating action | toxicity [2]: low toxicity
